According to patent US20240279232A1, “USE OF SUBSTITUTED 5-(4-METHYL-6-PHENYL-4H-BENZO[F]IMIDAZO[1,5-A][1,4] DIAZEPIN-3-YL)-1,2,4-O[…] THE TREATMENT OF INFLAMMATORY CONDITIONS” (priority 2021, published 2024):
Like-named read-outs stand apart in the source and are kept apart here.

Legend:
KOR (κ opioid receptor) = target: T1, KOR (κ opioid receptor) (Homo sapiens, UniProt P41145); assay: KOR radioligand binding ([3H]-U69593, HEK293 cell homogenates); settings: for inhibition at 10 µM: Percent inhibition at 10,000 nM
T1 construct: expressed in transfected cells; host or cells: HEK293 (stably transfected)

MOR (μ opioid receptor) = target: T2, MOR (μ opioid receptor) (Homo sapiens, UniProt P35372); assay: MOR radioligand binding ([3H]-DAMGO, HEK293 cell homogenates); settings: for inhibition at 10 µM: Percent inhibition at 10,000 nM, [3H]-DAMGO
T2 construct: expressed in transfected cells; host or cells: HEK293

DOR (δ opioid receptor) = target: T3, DOR (δ opioid receptor) (Homo sapiens, UniProt P41143); assay: DOR radioligand binding ([3H]-DADLE, HEK293 cell homogenates); settings: for inhibition at 10 µM: Percent inhibition at 10,000 nM, [3H]-DADLE
T3 construct: expressed in transfected cells; host or cells: HEK293

Mouse microglia = assay: NO production (Griess assay), LPS/IFNγ-activated mouse microglia; type: cell-based; settings: for inhibition at 10 µM / inhibition at 50 µM: Mus musculus, Microglia, 24 h
RAW macrophages = assay: Cell viability (CellTiter-Glo), RAW macrophages; type: cell-based, mouse; settings: for Cell viability (%) RAW macrophages 50 μM: CellTiter-Glo; for toxicity at 50 μM (in words): macrophages
[1] = concentration-dependent, [3H]-U69593, read-out: KOR (Ki)

## CCOC(=O)c1ncn2c1[C@@H](C)N=C(c1ccccn1)c1cc(Br)ccc1-2 [GL-II-06]
KOR (κ opioid receptor); [3H]-U69593
  inhibition at 10 µM: 79%
KOR (κ opioid receptor); [1]
  Ki: 0.401 µM
MOR (μ opioid receptor)
  inhibition at 10 µM: 11%
DOR (δ opioid receptor)
  inhibition at 10 µM: 9%
Mouse microglia
  inhibition at 10 µM: 14 ± 3%
RAW macrophages
  Cell viability (%) RAW macrophages 50 μM: 100 ± 10%

## C[C@H]1N=C(c2ccccn2)c2cc(Br)ccc2-n2cnc(C(=O)O)c21 [GL-II-51]
KOR (κ opioid receptor); [3H]-U69593
  inhibition at 10 µM: 11%
MOR (μ opioid receptor)
  inhibition at 10 µM: 0%
DOR (δ opioid receptor)
  inhibition at 10 µM: 0%
Mouse microglia
  inhibition at 10 µM: 9 ± 4%
RAW macrophages
  Cell viability (%) RAW macrophages 50 μM: 100 ± 3%

## C[C@H]1N=C(c2ccccc2F)c2cc(Br)ccc2-n2cnc(-c3cnco3)c21 [GL-III-36]
KOR (κ opioid receptor)
  Ki: 0.246 µM
KOR (κ opioid receptor); [3H]-U69593
  inhibition at 10 µM: 88%
MOR (μ opioid receptor)
  inhibition at 10 µM: 0%
DOR (δ opioid receptor)
  inhibition at 10 µM: 12%
Mouse microglia
  inhibition at 10 µM: 8 ± 5%
  inhibition at 50 µM: 41 ± 7%
RAW macrophages
  Cell viability (%) RAW macrophages 50 μM: 81 ± 5%

## CCOC(=O)c1ncn2c1[C@@H](C)N=C(c1ccccc1F)c1cc(C3CC3)ccc1-2 [GL-III-42]
KOR (κ opioid receptor)
  Ki: 0.174 µM
KOR (κ opioid receptor); [3H]-U69593
  inhibition at 10 µM: 86%
MOR (μ opioid receptor)
  inhibition at 10 µM: 0%
DOR (δ opioid receptor)
  inhibition at 10 µM: 13%
Mouse microglia
  inhibition at 10 µM: 55 ± 12%
RAW macrophages
  Cell viability (%) RAW macrophages 50 μM: 100 ± 6%

## C[C@H]1N=C(c2ccccc2F)c2cc(Cl)ccc2-n2cnc(C(=O)O)c21 [GL-III-54]
KOR (κ opioid receptor); [3H]-U69593
  inhibition at 10 µM: 22%
MOR (μ opioid receptor)
  inhibition at 10 µM: 0%
DOR (δ opioid receptor)
  inhibition at 10 µM: 0%
Mouse microglia
  inhibition at 10 µM: 31 ± 9%
RAW macrophages
  Cell viability (%) RAW macrophages 50 μM: 99 ± 12%

## Cc1noc(-c2ncn3c2[C@@H](C)N=C(c2ccccc2F)c2cc(Br)ccc2-3)n1 [GL-III-60, (R)-5-(8-Bromo-6-(2-fluorophenyl)-4-methyl-4H-benzo[f]imidazo[1,5-a][1,4]diazepin-3-yl)-3-methyl-1,2,4-oxadiazole]
KOR (κ opioid receptor)
  Ki: 0.232 µM
KOR (κ opioid receptor); [3H]-U69593
  inhibition at 10 µM: 87%
MOR (μ opioid receptor)
  inhibition at 10 µM: 26%
DOR (δ opioid receptor)
  inhibition at 10 µM: 18%
Mouse microglia
  inhibition at 10 µM: 55 ± 8%
  inhibition at 50 µM: 68 ± 8%
RAW macrophages
  Cell viability (%) RAW macrophages 50 μM: 86 ± 12%

## Cc1noc(-c2ncn3c2[C@@H](C)N=C(c2ccccc2F)c2cc(C4CC4)ccc2-3)n1 [GL-III-63, (R)-5-(8-Cyclopropyl-6-(2-fluorophenyl)-4-methyl-4H-benzo[f]imidazo[1,5-a][1,4]diazepin-3-yl)-3-methyl-1,2,4-oxadiazole]
KOR (κ opioid receptor)
  Ki: 0.678 µM
KOR (κ opioid receptor); [3H]-U69593
  inhibition at 10 µM: 78%
MOR (μ opioid receptor)
  inhibition at 10 µM: 8%
DOR (δ opioid receptor)
  inhibition at 10 µM: 31%
Mouse microglia
  inhibition at 10 µM: 25 ± 4%
  inhibition at 50 µM: 89 ± 12%
RAW macrophages
  Cell viability (%) RAW macrophages 50 μM: 87 ± 15%

## C#Cc1ccc2c(c1)C(c1ccccc1F)=N[C@H](C)c1c(C(=O)NC(C)C)ncn1-2 [GL-III-66]
KOR (κ opioid receptor); [3H]-U69593
  inhibition at 10 µM: 63%
KOR (κ opioid receptor); [1]
  Ki: 0.233 µM
MOR (μ opioid receptor)
  inhibition at 10 µM: 0%
DOR (δ opioid receptor)
  inhibition at 10 µM: 0%
Mouse microglia
  inhibition at 10 µM: 13 ± 2%
RAW macrophages
  Cell viability (%) RAW macrophages 50 μM: 100 ± 9%

## CCNC(=O)c1ncn2c1[C@@H](C)N=C(c1ccccc1F)c1cc(C3CC3)ccc1-2 [GL-III-68]
KOR (κ opioid receptor); [3H]-U69593
  inhibition at 10 µM: 88%
MOR (μ opioid receptor)
  inhibition at 10 µM: 0%
DOR (δ opioid receptor)
  inhibition at 10 µM: 10%
Mouse microglia
  inhibition at 10 µM: 24 ± 5%
RAW macrophages
  Cell viability (%) RAW macrophages 50 μM: 100 ± 8%

## C[C@H]1N=C(c2ccccc2F)c2cc(Br)ccc2-n2cnc(C(=O)N(C)C)c21 [GL-III-69]
KOR (κ opioid receptor); [3H]-U69593
  inhibition at 10 µM: 75%
KOR (κ opioid receptor); [1]
  Ki: 0.511 µM
MOR (μ opioid receptor)
  inhibition at 10 µM: 0%
DOR (δ opioid receptor)
  inhibition at 10 µM: 10%
Mouse microglia
  inhibition at 10 µM: 37 ± 6%
RAW macrophages
  Cell viability (%) RAW macrophages 50 μM: 98 ± 10%

## C[C@H]1N=C(c2ccccc2F)c2cc(C3CC3)ccc2-n2cnc(C(=O)N(C)C)c21 [GL-III-70]
KOR (κ opioid receptor); [3H]-U69593
  inhibition at 10 µM: 68%
KOR (κ opioid receptor); [1]
  Ki: 0.8 µM
MOR (μ opioid receptor)
  inhibition at 10 µM: 0%
DOR (δ opioid receptor)
  inhibition at 10 µM: 50%
Mouse microglia
  inhibition at 10 µM: 32 ± 4%
RAW macrophages
  Cell viability (%) RAW macrophages 50 μM: 100 ± 2%

## C#Cc1ccc2c(c1)C(c1ccccc1F)=N[C@H](C)c1c(-c3cnco3)ncn1-2 [GL-III-73]
KOR (κ opioid receptor)
  Ki: 0.449 µM
KOR (κ opioid receptor); [3H]-U69593
  inhibition at 10 µM: 74%
MOR (μ opioid receptor)
  inhibition at 10 µM: 12%
DOR (δ opioid receptor)
  inhibition at 10 µM: 4%
Mouse microglia
  inhibition at 10 µM: 40 ± 3%
RAW macrophages
  Cell viability (%) RAW macrophages 50 μM: 100 ± 4%

## C[C@@H]1N=C(c2ccccc2F)c2cc(Br)ccc2-n2cnc(-c3cnco3)c21 [GL-III-76]
KOR (κ opioid receptor)
  Ki: 0.221 µM
KOR (κ opioid receptor); [3H]-U69593
  inhibition at 10 µM: 83%
MOR (μ opioid receptor)
  inhibition at 10 µM: 3%
DOR (δ opioid receptor)
  inhibition at 10 µM: 0%
Mouse microglia
  inhibition at 10 µM: 34 ± 1%
RAW macrophages
  Cell viability (%) RAW macrophages 50 μM: 100 ± 5%

## C#Cc1ccc2c(c1)C(c1ccccc1F)=N[C@@H](C)c1c(-c3cnco3)ncn1-2 [GL-III-78]
KOR (κ opioid receptor)
  Ki: 0.451 µM
KOR (κ opioid receptor); [3H]-U69593
  inhibition at 10 µM: 74%
MOR (μ opioid receptor)
  inhibition at 10 µM: 10%
DOR (δ opioid receptor)
  inhibition at 10 µM: 9%
Mouse microglia
  inhibition at 10 µM: 39 ± 5%
RAW macrophages
  Cell viability (%) RAW macrophages 50 μM: 97 ± 2%

## CCc1noc(-c2ncn3c2[C@@H](C)N=C(c2ccccc2F)c2cc(C4CC4)ccc2-3)n1 [GL-IV-03, (R)-5-(8-Cyclopropyl-6-(2-fluorophenyl)-4-methyl-4H-benzo[f]imidazo[1,5-a][1,4]diazepin-3-yl)-3-ethyl-1,2,4-oxadiazole]
KOR (κ opioid receptor)
  Ki: 0.232 µM
KOR (κ opioid receptor); [3H]-U69593
  inhibition at 10 µM: 91%
MOR (μ opioid receptor)
  inhibition at 10 µM: 25%
DOR (δ opioid receptor)
  inhibition at 10 µM: 67%
Mouse microglia
  inhibition at 10 µM: 90%
RAW macrophages
  Cell viability (%) RAW macrophages 50 μM: 97 ± 7%
  toxicity at 50 μM (in words): no significant toxicity

## C#Cc1ccc2c(c1)C(c1ccccc1F)=N[C@H](C)c1c(C(=O)NC)ncn1-2 [MP-III-022]
KOR (κ opioid receptor); [3H]-U69593
  inhibition at 10 µM: 80%
KOR (κ opioid receptor); [1]
  Ki: 0.381 µM
MOR (μ opioid receptor)
  inhibition at 10 µM: 3%
DOR (δ opioid receptor)
  inhibition at 10 µM: 22%
Mouse microglia
  inhibition at 10 µM: 36 ± 6%
  inhibition at 50 µM: 60 ± 12%
RAW macrophages
  Cell viability (%) RAW macrophages 50 μM: 100 ± 11%

## C#Cc1ccc2c(c1)C(c1ccccc1F)=N[C@H](C)c1c(-c3nc(C)no3)ncn1-2 [MP-IV-004]
KOR (κ opioid receptor)
  Ki: 0.444 µM
KOR (κ opioid receptor); [3H]-U69593
  inhibition at 10 µM: 86%
MOR (μ opioid receptor)
  inhibition at 10 µM: 7%
DOR (δ opioid receptor)
  inhibition at 10 µM: 10%
Mouse microglia
  inhibition at 10 µM: 34 ± 5%
  inhibition at 50 µM: 60 ± 6%
RAW macrophages
  Cell viability (%) RAW macrophages 50 μM: 83 ± 12%

## C#Cc1ccc2c(c1)C(c1ccccc1F)=N[C@H](C)c1c(-c3nc(C(C)C)no3)ncn1-2 [MP-IV-010, (R)-5-(8-ethynyl-6-(2-fluorophenyl)-4-methyl-4H-benzo[f]imidazo[1,5-a][1,4]diazepin-3-yl)-3-isopropyl-1,2,4-oxadiazole]
KOR (κ opioid receptor)
  IC50: 0.351 µM
  Ki: 0.145 µM
KOR (κ opioid receptor); PDSP primary screening
  Percent Competition KOR: 94%
KOR (κ opioid receptor); [3H]-U69593
  inhibition at 10 µM: 94%
MOR (μ opioid receptor); PDSP primary screening
  Percent Competition MOR: 33%
MOR (μ opioid receptor)
  inhibition at 10 µM: 33%
DOR (δ opioid receptor); PDSP primary screening
  Percent Competition DOR: 5%
DOR (δ opioid receptor)
  inhibition at 10 µM: 5%
Mouse microglia
  inhibition at 10 µM: 66 ± 13%
  inhibition at 50 µM: 96 ± 13%
Mouse microglia; dexamethasone 100 nM, GABA 1 μM, MP-IV-010 50 μM, GL-II-33 in the library screen
  NO production of activated microglia (in words): significant reduction
RAW macrophages
  Cell viability (%) RAW macrophages 50 μM: 81 ± 10%
  toxicity at 50 μM (in words): no significant toxicity
